From US8791113B2, “2,4-diaryl-substituted [1,8] naphthyridines as kinase inhibitors for use against cancer” (Merck Patent GmbH, priority 2010, dated 2014)
pIC50: −log10 of the molar value.

Legend:
[1] = test system: TGF-beta-induced phosphorylation of Smad2 (Ser465/467) and Smad3 (Ser423/425) in Mv1-Lu cells; test: Inhibition of Smad2/3 phosphorylation in Mv1Lu cells (PathScan Phospho-Smad2 ELISA); type: cell-based, mink Mustela vison; details: Neogale vison, Mv1-Lu cells, TGF-beta 1 5 ng/ml, Phospho-Smad2/3 ELISA, read-out: TβR activity (Example 51)
Protocol: Inhibition of Smad2/3 Phosphorylation in Mv1 Lu Cells by TGF-Beta Receptor I Kinase Inhibitors
This assay was used to determine the inhibitory potency of compounds on TGF-beta-induced phosphorylation of Smad2 (Ser465/467) and Smad3 (Ser423/425). Mv1-Lu cells (lung epithelial cell line from mink Mustela vison; ATCC number: CCL-64) were seeded in DMEM (Invitrogen) supplemented with 10% fetal bovine serum (Pan Biotech) at a defined cell density in 24-well or 96-well plates (24-well plate: 1.5×10^5 cells per well; 96-well plate: 4×10^4 cells per well). Cell cultures were incubated in DMEM at 37° C. and 10% CO2. On the next day, the medium was replaced and cells were serum-starved for 16-20 hours. The following day, serial dilutions of compounds were added to the wells, pre-incubated for 1.5 hrs before recombinant TGF-beta 1 ligand (final concentration 5 ng/ml; R&D systems) was added. After one hour of ligand stimulation, lysates were prepared and analyzed using an enzyme-linked immunosorbent assay kit (PathScan Phospho-Smad2 Kit, Cell Signaling Technologies). The ELISA detects phosphorylated Smad2 as well as phosphorylated Smad3 with the phospho-specific antibody. TGF-beta stimulated cells and unstimulated cells served as positive and negative controls (100% and background control). The concentration of the vehicle DMSO was kept constant at 0.2% (v/v) in all wells. Dose-response relationships were fitted using curve fitting algorithms of the RS1 statistics software package (Brooks Automation Inc. RS/1- Statistical Tools Handbook. Release 6.2) to determine the concentration at which half-maximal inhibition (IC50) of Smad2/3 phosphorylation was achieved.

[2] = target: T1, GST-ALK5 (TGF-beta receptor kinase) (Homo sapiens, UniProt P36897); test: In-vitro (enzyme) kinase flashplate assay: GST-ALK5 phosphorylation of GST-SMAD2 with 33P-ATP; type: biochemical; details: 384-well flashplate kinase assay, GST-ALK5 / GST-SMAD2, 33P-ATP, 30° C., 45 min; read-out: TβR activity (Example 50)
T1 sequence (P36897 34-503): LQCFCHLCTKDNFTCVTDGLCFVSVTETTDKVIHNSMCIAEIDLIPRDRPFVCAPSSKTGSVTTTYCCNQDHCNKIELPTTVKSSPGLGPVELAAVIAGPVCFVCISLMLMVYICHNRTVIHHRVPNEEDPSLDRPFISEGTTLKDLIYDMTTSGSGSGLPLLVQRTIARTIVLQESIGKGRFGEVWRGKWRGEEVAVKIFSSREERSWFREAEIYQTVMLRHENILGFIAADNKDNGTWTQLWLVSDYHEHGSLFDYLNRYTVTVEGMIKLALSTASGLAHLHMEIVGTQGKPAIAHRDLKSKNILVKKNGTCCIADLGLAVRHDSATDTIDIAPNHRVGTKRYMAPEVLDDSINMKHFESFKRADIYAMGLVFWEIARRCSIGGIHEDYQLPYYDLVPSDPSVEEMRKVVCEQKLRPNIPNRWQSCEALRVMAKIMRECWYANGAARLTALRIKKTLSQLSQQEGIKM
Protocol: In-vitro (Enzyme) Assay for Determination of the Efficacy of Inhibitors of the Inhibition of TGF-Beta-Mediated Effects
The kinase assay was carried out as 384-well flashplate assay. 31.2 nM of GST-ALK5, 439 nM of GST-SMAD2 and 3 mM of ATP (with 0.3 μCi of ^33P-ATP/well) were incubated in a total volume of 35 μl (20 mM of HEPES, 10 mM of MgCl2, 5 mM of MnCl2, 1 mM of DTT, 0.1% of BSA, pH 7.4) without or with test substance (5-10 concentrations) at 30° C. for 45 min. The reaction was stopped using 25 μl of 200 mM EDTA solution, filtered with suction at room temperature after 30 min, and the wells were washed with 3 times 100 μl of 0.9% NaCl solution. Radioactivity was measured in the TopCount. The IC50 values were calculated using RS1.

Row | Structure (SMILES) | pIC50 [1] | pIC50 [2]
1 | Nc1nccc2c(-c3cc(-c4ccccc4F)nc4ncccc34)cccc12 [Compound 9, 5-[2-(2-Fluoro-phenyl)-[1,8]naphthyridin-4-yl]-isoquinolin-1-ylamine] | > 6.00 | > 6.00
2 | Nc1nccc2c(-c3cc(-c4ccccc4Cl)nc4ncccc34)nccc12 [Compound 90, 5-[2-(2-Chloro-phenyl)-[1,8]naphthyridin-4-yl]-[2,6]naphthyridin-1-ylamine] | 5.00 to 6.00 | > 6.00
3 | [O-][n+]1ccc2c(-c3cc(-c4ccccc4F)nc4ncccc34)nccc2c1 [Compound 88, 2-(2-Fluoro-phenyl)-4-(6-oxy-[2,6]naphthyridin-1-yl)-[1,8]naphthyridine] | < 5.00 | < 5.00
4 | COc1ccc2cnccc2c1-c1cc(-c2ccccc2F)nc2ncccc12 [Compound 70, 2-(2-Fluoro-phenyl)-4-(6-methoxy-isoquinolin-5-yl)-[1,8]naphthyridine] | > 6.00 | > 6.00
5 | Nc1nccc2c(-c3cc(-c4cc(C(F)(F)F)ccc4F)nc4ncccc34)cccc12 [Compound 8, 5-[2-(2-Fluoro-5-trifluoromethyl-phenyl)-[1,8]naphthyridin-4-yl]-isoquinolin-1-ylamine] | > 6.00 | > 6.00
6 | Nc1ccc2c(-c3nccc4c(N)nccc34)cc(-c3ccccc3F)nc2n1 [Compound 114, 5-(5-Amino-[2,6]naphthyridin-1-yl)-7-(2-fluoro-phenyl)-[1,8]naphthyridin-2-ylamine] | > 6.00 | > 6.00
7 | CC(=O)Nc1ccc2cnccc2c1-c1cc(-c2ccccc2F)nc2ncccc12 [Compound 85, N-{5-[2-(2-Fluoro-phenyl)-[1,8]naphthyridin-4-yl]-isoquinolin-6-yl}-acetamide] | < 5.00 | 5.00 to 6.00
8 | Nc1ccc2cnccc2c1-c1cc(-c2ccccc2F)nc2ncccc12 [Compound 62, 5-[2-(2-Fluoro-phenyl)-[1,8]naphthyridin-4-yl]-isoquinolin-6-ylamine] | 5.00 to 6.00 | > 6.00
9 | Cc1cccc(-c2cc(-c3cccc4c(N)nccc34)c3cccnc3n2)n1 [Compound 6, 5-[2-(6-Methyl-pyridin-2-yl)-[1,8]naphthyridin-4-yl]-isoquinolin-1-ylamine] | > 6.00 | > 6.00
10 | Cc1ccn(-c2cc(-c3c[nH]c4cnccc34)c3cccnc3n2)n1 [Compound 118, 2-(3-Methyl-pyrazol-1-yl)-4-(1H-pyrrolo[2,3-c]pyridin-3-yl)-[1,8]naphthyridine] | > 6.00 | > 6.00
11 | Nc1nccc2c(-c3cc(-c4ccccc4F)nc4ncccc34)ccc(OCCO)c12 [Compound 79, 2-{1-Amino-5-[2-(2-fluoro-phenyl)-[1,8]naphthyridin-4-yl]-isoquinolin-8-yloxy}-ethanol] | > 6.00 | > 6.00

The next lines start with the values.

Row | pIC50 [1] | pIC50 [2] | Structure (SMILES)
12 | > 6.00 | > 6.00 | COc1ccc(-c2cc(-c3cc(F)ccc3F)nc3ncccc23)c2ccncc12 [Compound 99, 2-(2,5-Difluoro-phenyl)-4-(8-methoxy-isoquinolin-5-yl)-[1,8]naphthyridine]
13 | < 5.00 | 5.00 to 6.00 | O=c1cc(-c2cc(-c3cc(Cl)ccc3F)nc3ncccc23)c2ccncc2n1CCN1CCOCC1 [Compound 110, 4-[2-(5-Chloro-2-fluoro-phenyl)-[1,8]naphthyridin-4-yl]-1-(2-morpholin-4-yl-ethyl)-1H-[1,7]naphthyridin-2-one]
14 | > 6.00 | > 6.00 | Fc1ccc(Cl)cc1-c1cc(-c2cccc3cnccc23)c2cccnc2n1 [Compound 2, 2-(5-Chloro-2-fluoro-phenyl)-4-isoquinolin-5-yl-[1,8]naphthyridine]
15 | < 5.00 | 5.00 to 6.00 | Fc1ccccc1-c1cc(-c2ncnc3cnccc23)c2cccnc2n1 [Compound 18, 4-[2-(2-Fluoro-phenyl)-[1,8]naphthyridin-4-yl]-pyrido[3,4-d]pyrimidine]
16 | > 6.00 | > 6.00 | Fc1ccc(C(F)(F)F)cc1-c1cc(-c2c[nH]c3cnccc23)c2cccnc2n1 [Compound 3, 2-(2-Fluoro-5-trifluoromethyl-phenyl)-4-(1H-pyrrolo[2,3-c]pyridin-3-yl)-[1,8]naphthyridine]
17 | > 6.00 | > 6.00 | O=c1[nH]cc(-c2cc(-c3cc(F)ccc3F)nc3ncccc23)c2ccncc12 [Compound 107, 4-[2-(2,5-Difluoro-phenyl)-[1,8]naphthyridin-4-yl]-2H-[2,7]naphthyridin-1-one]
18 | > 6.00 | > 6.00 | Fc1ccc(Cl)cc1-c1cc(-c2cnc(OCCN3CCOCC3)c3cnccc23)c2cccnc2n1 [Compound 77, 2-(5-Chloro-2-fluoro-phenyl)-4-[1-(2-morpholin-4-yl-ethoxy)-[2,7]naphthyridin-4-yl]-[1,8]naphthyridine]
19 | 5.00 to 6.00 | 5.00 to 6.00 | O=c1c2cnccc2c(-c2cc(-c3cc(Cl)ccc3F)nc3ncccc23)cn1CCN1CCOCC1 [Compound 76, 4-[2-(5-Chloro-2-fluoro-phenyl)-[1,8]naphthyridin-4-yl]-2-(2-morpholin-4-yl-ethyl)-2H-[2,7]naphthyridin-1-one]
20 | > 6.00 | > 6.00 | Fc1ccc(Cl)cc1-c1cc(-c2nccc3cnccc23)c2cccnc2n1 [Compound 35, 2-(5-Chloro-2-fluoro-phenyl)-4-[2,6]naphthyridin-1-yl-[1,8]naphthyridine]
21 | > 6.00 | > 6.00 | Fc1ccccc1-c1cc(-c2cccc3cnccc23)c2cccnc2n1 [Compound 19, 2-(2-Fluoro-phenyl)-4-isoquinolin-5-yl-[1,8]naphthyridine]
22 | > 6.00 | > 6.00 | Fc1ccc(Cl)cc1-c1cc(-c2cnc(OCCN3CCCC3)c3cnccc23)c2cccnc2n1 [Compound 100, 2-(5-Chloro-2-fluoro-phenyl)-4-[1-(2-pyrrolidin-1-yl-ethoxy)-[2,7]naphthyridin-4-yl]-[1,8]naphthyridine]
23 | > 6.00 | > 6.00 | O=c1c2cnccc2c(-c2cc(-c3cc(Cl)ccc3F)nc3ncccc23)cn1CCCO [Compound 75, 4-[2-(5-Chloro-2-fluoro-phenyl)-[1,8]naphthyridin-4-yl]-2-(3-hydroxy-propyl)-2H-[2,7]naphthyridin-1-one]
24 | > 6.00 | > 6.00 | CCN(CC)CCOc1ccc(-c2cc(-c3cc(F)ccc3F)nc3ncccc23)c2ccncc12 [Compound 103, (2-{5-[2-(2,5-Difluoro-phenyl)-[1,8]naphthyridin-4-yl]-isoquinolin-8-yloxy}-ethyl)-diethyl-amine]
25 | > 6.00 | > 6.00 | Nc1nccc2c(-c3cc(-c4cc(F)ccc4F)nc4ncccc34)cccc12 [Compound 10, 5-[2-(2,5-Difluoro-phenyl)-[1,8]naphthyridin-4-yl]-isoquinolin-1-ylamine]
26 | > 6.00 | > 6.00 | Fc1ccc(Cl)cc1-c1cc(-c2ccc(OCCN3CCCC3)c3cnccc23)c2cccnc2n1 [Compound 102, 2-(5-Chloro-2-fluoro-phenyl)-4-[8-(2-pyrrolidin-1-yl-ethoxy)-isoquinolin-5-yl]-[1,8]naphthyridine]
27 | > 6.00 | > 6.00 | O=c1c2cnccc2c(-c2cc(-c3cc(Cl)ccc3F)nc3ncccc23)cn1CC(O)CO (stereo not drawn) [Compound 81, 4-[2-(5-Chloro-2-fluoro-phenyl)-[1,8]naphthyridin-4-yl]-2-(2,3-dihydroxy-propyl)-2H-[2,7]naphthyridin-1-one]
